Laboratory results as given in article PMC3804772, “Rational Design, Synthesis, and Biological Evaluation of Third Generation α-Noscapine Analogues as Potent Tubulin Binding Anti-Cancer Agents” (PLoS ONE, 2013).
Read-outs that look alike come from different tables or passages of the source.

Assays:
[1] = tested on: human lung adenocarcinoma epithelial cell line (A549); assay: In vitro cell proliferation assay (SRB), A549; type: cell-based; settings: 72 h, mean ± S.D.
Protocol: (§1) The cell proliferation assay was performed in 96-well plates as described previously. A panel of four cancer cell lines of different tissues of origins, namely: human lung adenocarcinoma epithelial cell line (A549), human lymphoblast cell line (CEM), human cervix cell line (HeLa) and human breast epithelial cell line (MCF-7) were studied. These cell lines were obtained from the National Repository of Animal Cell Culture, National Centre for Cell Sciences, Pune (NCCS), India. Briefly, 2 x10^3 cells were seeded in each well and were incubated with gradient concentrations of 5a, 6a-j compounds for 72 h. The cells were then fixed with 50% trichloroacetic acid and stained with 0.4% sulforhodamine B (SRB) dissolved in 1% acetic acid. Cells were then washed with1% acetic acid to remove excess (unbound) SRB. The protein-bound SRB was dissolved with 10 mM Tris base and the absorbance at 564 nm was determined using a SPECTRAmax PLUS 384 microplate spectrophotometer.

[2] = tested on: human breast epithelial cell line (MCF-7); assay: In vitro cell proliferation assay (SRB), MCF-7; type: cell-based; settings: MCF7, 72 h, mean ± S.D.
Protocol: as §1

[3] = tested on: human cervix cell line (HeLa); assay: In vitro cell proliferation assay (SRB), HeLa; type: cell-based; settings: 72 h, mean ± S.D.
Protocol: as §1

[4] = tested on: human lymphoblast cell line (CEM); assay: In vitro cell proliferation assay (SRB), CEM; type: cell-based; settings: 72 h, mean ± S.D.
Protocol: as §1

tubulin [5] = assay: Tubulin binding of noscapine and previously reported noscapinoids (literature values); settings: Table 1; calculated from KD, ΔGbind = RT ln KD, T = 298 K
Protocol: Here ⟨ ⟩ represent the ensemble average, b represents the bound form of the ligand, f represents the free form of the ligand, and α, β, and γ are the coefficients. U vdw, U elec, and U cav are the van der Waals, electrostatic, and cavity energy terms in the SGB continuum solvent model. The cavity energy term, U cav, is proportional to the exposed surface area of the ligand. Various energy parameters included in equation 1 were calculated from the docked complex corresponding to each analogue using Liaison package as described previously. The average LIE energy terms were used for building the binding affinity model and estimation of binding free energies of noscapine derivatives. The α, β, and γ LIE fitting parameters were determined using Minitab statistical package (version 16.0, Minitab Inc.) by fitting the experimental binding affinities of training set molecules. A dataset consisting of 7 noscapine derivatives (compounds: 1, 2a-f; Figure 2) with known experimental binding affinities was used as a training set.

tubulin [6] = settings: cited from earlier work
MCF-7 cells = assay: Cell cycle analysis by flow cytometry (propidium iodide); type: cell-based, human; settings: MCF-7, 25 µM
Protocol: The flow cytometric evaluation of the cell cycle status was performed as described previously. Briefly, cells (2 x 10^6) treated with the noscapinoids up to 72 h were centrifuged, washed twice with cold PBS, and fixed in 70% ethanol. Tubes containing the cell pellets were stored at 4 °C for minimum of 24 h. Cells were then centrifuged at 1000 x g for 10 min and the supernatant was discarded. The pellets were washed twice with 5 ml of PBS and then stained with 0.5 ml of propidium iodide (0.1% of Pl + 0.6% Triton-X in PBS) and 0.5 ml of RNase A (2 mg/ml) for 45 minutes in dark. Samples were then analyzed on a FACS Calibur flow cytometer ([…]).

tubulin [7] = biological target: T1, tubulin (Bos taurus, UniProt P81947+Q6B856); assay: Tubulin binding assay (quenching of intrinsic tryptophan fluorescence); design: species or system bovine; settings: for Kd: 2 µM tubulin, PEM buffer pH 6.8, 37 °C, 45 min, mean ± S.D.; for Experimental ΔGbind: calculated from KD, ΔGbind = RT ln KD, T = 298 K
T1 construct: Tubulin devoid of microtubule-associated proteins (MAPs) was purified from bovine brain; from tissue; host or cells: bovine brain
T1 sequence (Q6B856 whole entry): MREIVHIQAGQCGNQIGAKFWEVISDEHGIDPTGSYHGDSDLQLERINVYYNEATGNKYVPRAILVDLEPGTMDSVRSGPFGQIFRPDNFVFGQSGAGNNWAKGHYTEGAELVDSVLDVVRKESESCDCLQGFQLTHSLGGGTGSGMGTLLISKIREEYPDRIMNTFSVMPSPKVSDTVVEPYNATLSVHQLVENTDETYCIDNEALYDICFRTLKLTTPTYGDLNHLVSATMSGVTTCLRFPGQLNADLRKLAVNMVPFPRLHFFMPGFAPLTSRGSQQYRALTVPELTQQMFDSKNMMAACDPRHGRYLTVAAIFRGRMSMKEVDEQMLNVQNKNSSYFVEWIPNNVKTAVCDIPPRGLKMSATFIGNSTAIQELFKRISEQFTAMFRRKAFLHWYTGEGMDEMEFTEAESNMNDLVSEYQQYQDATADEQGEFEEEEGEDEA
T1 sequence (P81947 whole entry): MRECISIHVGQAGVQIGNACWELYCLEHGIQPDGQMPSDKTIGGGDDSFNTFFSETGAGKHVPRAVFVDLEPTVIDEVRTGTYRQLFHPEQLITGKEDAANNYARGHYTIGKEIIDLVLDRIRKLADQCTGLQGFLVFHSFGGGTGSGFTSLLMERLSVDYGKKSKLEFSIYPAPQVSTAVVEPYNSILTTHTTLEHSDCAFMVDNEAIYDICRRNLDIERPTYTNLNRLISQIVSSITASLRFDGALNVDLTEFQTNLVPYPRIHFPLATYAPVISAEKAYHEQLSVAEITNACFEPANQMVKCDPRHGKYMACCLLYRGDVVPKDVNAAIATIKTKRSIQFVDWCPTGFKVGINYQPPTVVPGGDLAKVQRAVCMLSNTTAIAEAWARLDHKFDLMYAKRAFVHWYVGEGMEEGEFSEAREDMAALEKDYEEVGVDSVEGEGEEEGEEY
Protocol: Tubulin devoid of microtubule-associated proteins (MAPs) was purified from bovine brain by cycles of temperature-dependent polymerization and depolymerization as described previously followed by phosphocellulose chromatography. The concentration of the tubulin was determined by the method of Bradford using BSA as the standard. Purified tubulin was quickly frozen as drops in liquid nitrogen and stored at - 80 °C until used.
Noscapinoids quench the […] intrinsic tryptophan fluorescence of tubulin in a concentration-dependent fashion as described previously. This has allowed an easy method for measuring the tubulin-noscapinoids interactions. Briefly, the compounds 5a, 6a-j (0-200 µM) were incubated with 2 µM tubulin in PEM buffer (100 mM PIPES, pH 6.8, 3 mM MgSO4, and 1 mM EGTA) at 37 °C for 45 min. After incubation, the samples were excited at 295 nm. The relative intrinsic fluorescence intensity of the tubulin was then monitored in the absence and presence of the compound 5a, 6a-j using a Varian Cary Eclipse Fluorescence Spectrophotometer (Agilent Technologies, CA, USA). The emission readings were recorded at 335 nm. We used a 0.3 cm path-length cuvette to minimize the inner filter effects caused by the absorbance of the noscapinoids. In addition, the inner filter effects were corrected using a formula F corrected = F observed·antilog [(A ex + A em)/2], where A ex is the absorbance at the excitation wavelength and A em is the absorbance at the emission wavelength. The equilibrium dissociation constant (KD) was determined by the formula: 1/a = KD/[free ligand] + 1, where a is the fractional occupancy and [free ligand] is the concentration of free ligand. The fractional occupancy (a) was determined by the formula a = ΔF/ΔF max, where ΔF is the change in fluorescence intensity when tubulin and its ligand are in equilibrium and ΔF max is the value of maximum fluorescence change when tubulin is completely bound with its ligand. ΔF max was calculated by plotting 1/ΔF versus 1/ligand, using total ligand concentration as the first estimate of free ligand concentration. Three independent experiments were performed for each noscapinoid.

[8] = tested on: cancer cells of different tissues of origin (CEM, HeLa, A549, MCF-7); assay: In vitro cell proliferation assay (SRB), panel of four cancer cell lines; type: cell-based; settings: Homo sapiens; range over cancer cells of different tissues of origin
Protocol: as §1

[9] = Table 1, training set with known experimental binding affinities, mean ± S.D., read-out: KD value

SMILES | IC50 [1] | IC50 [2] | IC50 [3] | IC50 [4] | Experimental ΔGbind (tubulin [5]) | Cell cycle parameters % G0/G1, 24 hours (MCF-7 cells) | Cell cycle parameters % G2/M, 24 hours (MCF-7 cells) | Cell cycle parameters % S, 24 hours (MCF-7 cells) | Cell cycle parameters % Sub-G1, 24 hours (MCF-7 cells) | Cell cycle parameters % G0/G1, 72 hours (MCF-7 cells) | Cell cycle parameters % G2/M, 72 hours (MCF-7 cells) | Cell cycle parameters % S, 72 hours (MCF-7 cells) | Cell cycle parameters % Sub-G1, 72 hours (MCF-7 cells) | Kd (tubulin [6]; [9]) | Kd (tubulin [7]) | Experimental ΔGbind (tubulin [7]) | melting point | other results
COc1ccc2c(c1OC)C(=O)O[C@@H]2[C@H]1c2c(cc3c(c2OC)OCO3)CCN1C [Compound 1, noscapine] | 72.9 ± 4.6 µM | 42.3 ± 2.7 µM | 24 ± 2.9 µM | 14.5 ± 2.5 µM | -5.246 kcal/mol | 19.48% | 62.38% | 4.19% | 7.24% | 19.05% | 37.36% | 8.53% | 30.62% |  |  |  |  | Binding stoichiometry, noscapine molecule per tubulin dimer (tubulin [6]): 0.95 ± 0.02; Kd (tubulin [6]; values quoted in the text for comparison, read-out: Equilibrium dissociation constant (KD)): 144 ± 1 µM
COc1ccc2c(c1OC)C(=O)O[C@@H]2[C@H]1c2c(c(F)c3c(c2OC)OCO3)CCN1C [Compound 2a] |  |  |  |  | -5.587 kcal/mol |  |  |  |  |  |  |  |  | 81 ± 8 µM |  |  |  | 
COc1ccc2c(c1OC)C(=O)O[C@@H]2[C@H]1c2c(c(Cl)c3c(c2OC)OCO3)CCN1C [Compound 2b] |  |  |  |  | -6.006 kcal/mol |  |  |  |  |  |  |  |  | 40 ± 8 µM |  |  |  | 
COc1ccc2c(c1OC)C(=O)O[C@@H]2[C@H]1c2c(c(Br)c3c(c2OC)OCO3)CCN1C [Compound 2c, 9-bromonoscapine] |  |  |  |  | -5.827 kcal/mol |  |  |  |  |  |  |  |  | 54 ± 9.1 µM |  |  |  | 
COc1ccc2c(c1OC)C(=O)O[C@@H]2[C@H]1c2c(c(I)c3c(c2OC)OCO3)CCN1C [Compound 2d] |  |  |  |  | -6.360 kcal/mol |  |  |  |  |  |  |  |  | 22 ± 4 µM |  |  |  | 
COc1ccc2c(c1OC)C(=O)O[C@@H]2[C@H]1c2c(c([N+](=O)[O-])c3c(c2OC)OCO3)CCN1C [Compound 2e] |  |  |  |  | -5.551 kcal/mol |  |  |  |  |  |  |  |  | 86 ± 6 µM |  |  |  | 
COc1ccc2c(c1OC)C(=O)O[C@@H]2[C@H]1c2c(c(N=[N+]=[N-])c3c(c2OC)OCO3)CCN1C [Compound 2f] |  |  |  |  | -6.628 kcal/mol |  |  |  |  |  |  |  |  | 14 ± 1 µM |  |  |  | 
COc1ccc2c(c1OC)C(=O)O[C@@H]2[C@H]1c2c(cc3c(c2OC)OCO3)CCN1Cc1cccc(Br)c1 [Compound 6f, (S)-3-((R)-6-(3-bromobenzyl)-4-methoxy-5,6,7,8-tetrahydro-[1,3]dioxolo[4,5-g]isoquinolin-5-yl)-6,7-dimethoxyisobenzofuran-1(3H)-one] | 26.9 ± 1.4 µM | 24.5 ± 0.8 µM | 15.3 ± 0.5 µM | 6.7 ± 0.3 µM |  | 11.82% | 67.48% | 6.29% | 9.47% | 6.38% | 37.29% | 4.72% | 50.44% |  | 38 ± 4 µM | -6.036 kcal/mol | 65 °C | Tubulin binding affinity relative to the parent compound noscapine (tubulin [7]; ratio of KD values): ~ 4.0 times; IC50 [8]: 6.7 to 26.9 µM
COC(=O)CN1CCc2cc3c(c(OC)c2[C@@H]1[C@H]1OC(=O)c2c1ccc(OC)c2OC)OCO3 [Compound 6i, Methyl 2-((R)-5-((S)-4,5-dimethoxy-3-oxo-1,3-dihydroisobenzofuran-1-yl)-4-methoxy-7,8-dihydro-[1,3]dioxolo[4,5-g]isoquinolin-6(5H)-yl)acetate] | 45.4 ± 2.5 µM | 36 ± 1.9 µM | 22.3 ± 1.2 µM | 9.5 ± 0.7 µM |  | 19.57% | 63.38% | 4.62% | 12.25% | 14.37% | 37.15% | 6.43% | 40.18% |  | 79 ± 8 µM | -5.602 kcal/mol | 155 °C | 
CCOC(=O)CN1CCc2cc3c(c(OC)c2[C@@H]1[C@H]1OC(=O)c2c1ccc(OC)c2OC)OCO3 [Compound 6j, Ethyl 2-((R)-5-((S)-4,5-dimethoxy-3-oxo-1,3-dihydroisobenzofuran-1-yl)-4-methoxy-7,8-dihydro-[1,3]dioxolo[4,5-g]isoquinolin-6(5H)-yl)acetate] | 72.3 ± 3.5 µM | 52.6 ± 3.8 µM | 32.4 ± 2.4 µM | 13.6 ± 1.3 µM |  | 25.71% | 66.17% | 3.09% | 8.29% | 22.16% | 39.48% | 8.63% | 27.24% |  | 228 ± 10 µM | -4.973 kcal/mol | 92 °C | 
